Tests used:
Type in all cases: in vivo
[1] = tested on: pigweed (Amaranthus retroflexus); assay: Test B pre-/postemergence plant response
In short: (§1)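 Greenhouse pots, loam/sand soil; compound formulated with surfactant in non-phytotoxic solvent. Preemergence soil spray and postemergence spray at 1–2 leaf stage run simultaneously. Visual injury, 0–100, about 10 days post-treatment.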

[2] = tested on: Italian ryegrass (Lolium multiflorum); assay: Test B pre-/postemergence plant response
In short: as §1

[3] = tested on: kochia (Kochia scoparia); assay: Test B pre-/postemergence plant response
In short: as §1

[4] = tested on: wheat (Triticum aestivum); assay: Test B pre-/postemergence plant response
In short: as §1

[5] = tested on: giant foxtail (Setaria faberii); assay: Test B pre-/postemergence plant response
In short: as §1

[6] = tested on: ragweed (common ragweed, Ambrosia elatior); assay: Test B pre-/postemergence plant response
In short: as §1

[7] = tested on: barnyardgrass (Echinochloa crus-galli); assay: Test B pre-/postemergence plant response
In short: as §1

[8] = tested on: corn (Zea mays); assay: Test B pre-/postemergence plant response
In short: as §1

[9] = tested on: chickweed (common chickweed, Stellaria media); assay: Test D postemergence plant response; conditions: for Plant response rating (scale 0 to 100), Chickweed: 16 g ai/ha; for Chickweed plant response rating: 31 g ai/ha, scale 0 to 100 (0 no effect, 100 complete control); for Plant response rating, Chickweed: scale 0 to 100, 0 no effect, 100 complete control
In short: (§2)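 Postemergence spray on plants 2–18 cm tall (1- to 4-leaf stage), grown in pots of peat/vermiculite medium. Plants were kept in a greenhouse for 13–15 days, then visually rated against untreated controls on a 0 (no effect) to 100 (complete control) scale.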

[10] = tested on: kochia (Kochia scoparia); assay: Test D postemergence plant response; conditions: for Plant response rating (scale 0 to 100), Kochia: 16 g ai/ha; for Kochia plant response rating: 31 g ai/ha, scale 0 to 100 (0 no effect, 100 complete control); for Plant response rating, Kochia: scale 0 to 100, 0 no effect, 100 complete control
In short: as §2

[11] = tested on: wild oat (Avena fatua); assay: Test D postemergence plant response; conditions: for Plant response rating (scale 0 to 100), Oat, Wild: 16 g ai/ha; for Plant response rating, Oat, Wild: 125 g ai/ha
In short: as §2

[12] = tested on: small-flower umbrella sedge (Cyperus difformis); assay: Test C flooded paddy test plant response; conditions: Flood, 250 g ai/ha; scale of 0 to 100 where 0 is no effect and 100 is complete control; 13 to 15 days
In short: (§3)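 Plants grown to the 2-leaf stage; pots flooded to 3 cm above soil, test compounds applied directly to paddy water, depth maintained throughout. Greenhouse for 13 to 15 days, then visual rating versus controls on a 0–100 scale (0 no effect, 100 complete control).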

[13] = tested on: rice (Oryza sativa); assay: Test C flooded paddy test plant response; conditions: Flood, 250 g ai/ha; scale of 0 to 100 where 0 is no effect and 100 is complete control; 13 to 15 days
In short: as §3

[14] = tested on: barnyardgrass (Echinochloa crus-galli); assay: Test C flooded paddy test plant response; conditions: Flood, 250 g ai/ha; scale of 0 to 100 where 0 is no effect and 100 is complete control; 13 to 15 days
In short: as §3

[15] = tested on: ducksalad (Heteranthera limosa); assay: Test C flooded paddy test plant response; conditions: Flood, 250 g ai/ha; scale of 0 to 100 where 0 is no effect and 100 is complete control; 13 to 15 days
In short: as §3

[16] = tested on: galium (catchweed bedstraw, Galium aparine); assay: Test B postemergence plant response
In short: (§4)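 Injury was assessed visually about 10 days after treatment, scored from 0 (no effect) to 100 (complete control) by comparison with untreated controls. Test chemicals had been applied postemergence to potted plants at the one- to two-leaf stage, grown in loam soil and sand in a greenhouse.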

[17] = tested on: blackgrass (Alopecurus myosuroides); assay: Test B postemergence plant response
In short: as §4

[18] = 125 g ai/ha, postemergence, 0 to 100 scale, 0 no effect, 100 complete control
[19] = Postemergence, 500 g ai/ha, 0 to 100 scale (0 no effect, 100 complete control)
[20] = Preemergence, 125 g ai/ha, 0 to 100 scale (0 no effect, 100 complete control)
[21] = Preemergence, 500 g ai/ha, 0 to 100 scale where 0 is no effect and 100 is complete control
[22] = 31 g ai/ha, scale 0 to 100 (0 no effect, 100 complete control)
[23] = 62 g ai/ha, scale 0 to 100, 0 no effect, 100 complete control
[24] = scale 0 to 100, 0 no effect, 100 complete control
[25] = Postemergence, 1000 g ai/ha, 0 to 100 scale (0 no effect, 100 complete control)
[26] = Preemergence, 1000 g ai/ha, 0 to 100 scale (0 no effect, 100 complete control)
[27] = 31 g ai/ha, Preemergence, 0 to 100 scale where 0 is no effect and 100 is complete control
[28] = Postemergence, 31 g ai/ha, 0 to 100 scale (0 no effect, 100 complete control)

Compound: FC(F)c1cc(-c2c(Cl)cccc2Oc2ncc(Cl)cn2)no1 [Compound 179]
- Plant response rating, Pigweed [1, 18]: 100
- Plant response rating, Pigweed [1, 19]: 100
- Pigweed plant response rating [1, 20]: 100
- Plant response rating, Pigweed [1, 21]: 100
- Plant response rating, Ryegrass, Italian [2, 18]: 90
- Plant response rating, Ryegrass, Italian [2, 19]: 100
- Ryegrass, Italian plant response rating [2, 20]: 20
- Plant response rating, Ryegrass, Italian [2, 21]: 40
- Plant response rating, Kochia [3, 18]: 90
- Plant response rating, Kochia [3, 19]: 100
- Kochia plant response rating [3, 20]: 100
- Plant response rating, Kochia [3, 21]: 100
- Plant response rating, Wheat [4, 18]: 40
- Plant response rating, Wheat [4, 19]: 90
- Plant response rating, Foxtail, Giant [5, 18]: 40
- Plant response rating, Foxtail, Giant [5, 19]: 80
- Foxtail, Giant plant response rating [5, 20]: 80
- Plant response rating, Foxtail, Giant [5, 21]: 100
- Plant response rating, Ragweed [6, 18]: 10
- Plant response rating, Ragweed [6, 19]: 30
- Ragweed plant response rating [6, 20]: 10
- Plant response rating, Ragweed [6, 21]: 40
- Plant response rating, Barnyardgrass [7, 18]: 10
- Plant response rating, Barnyardgrass [7, 19]: 80
- Barnyardgrass plant response rating [7, 20]: 10
- Plant response rating, Barnyardgrass [7, 21]: 90
- Plant response rating, Corn [8, 18]: 10
- Plant response rating, Corn [8, 19]: 40
- Plant response rating (scale 0 to 100), Chickweed [9]: 70
- Chickweed plant response rating [9]: 80
- Plant response rating, Chickweed ([9]; 62 g ai/ha): 95
- Plant response rating, Chickweed ([9]; 125 g ai/ha): 95
- Plant response rating (scale 0 to 100), Kochia [10]: 90
- Kochia plant response rating [10]: 100
- Plant response rating, Kochia ([10]; 62 g ai/ha): 100
- Plant response rating, Kochia ([10]; 125 g ai/ha): 100
- Plant response rating (scale 0 to 100), Oat, Wild [11]: 0
- Oat, Wild plant response rating [11, 22]: 5
- Oat, Wild plant response rating [11, 23]: 15
- Plant response rating, Oat, Wild [11, 24]: 20
- Sedge, Umbrella plant response rating [12]: 80
- Rice plant response rating [13]: 40
- Barnyardgrass plant response rating [14]: 0
- Ducksalad plant response rating [15]: 80
- Plant response rating, Galium [16, 18]: 100
- Plant response rating, Galium [16, 19]: 100
- Plant response rating, Blackgrass [17, 18]: 80
- Plant response rating, Blackgrass [17, 19]: 100

Compound: FCc1cc(-c2c(Br)cccc2Oc2ncc(Cl)cn2)no1 [Compound 191]
- Plant response rating, Pigweed [1, 25]: 100
- Plant response rating, Pigweed [1, 26]: 100
- Plant response rating, Ryegrass, Italian [2, 25]: 100
- Plant response rating, Ryegrass, Italian [2, 26]: 90
- Plant response rating, Kochia [3, 25]: 100
- Plant response rating, Kochia [3, 26]: 100
- Plant response rating, Wheat [4, 25]: 30
- Plant response rating, Foxtail, Giant [5, 25]: 100
- Plant response rating, Foxtail, Giant [5, 26]: 100
- Plant response rating, Ragweed [6, 25]: 90
- Plant response rating, Ragweed [6, 26]: 90
- Plant response rating, Barnyardgrass [7, 25]: 100
- Plant response rating, Barnyardgrass [7, 26]: 100
- Plant response rating, Corn [8, 25]: 60
- Plant response rating (scale 0 to 100), Chickweed [9]: 50
- Chickweed plant response rating [9]: 55
- Plant response rating, Chickweed ([9]; 62 g ai/ha): 70
- Plant response rating, Chickweed ([9]; 125 g ai/ha): 90
- Plant response rating (scale 0 to 100), Kochia [10]: 50
- Kochia plant response rating [10]: 80
- Plant response rating, Kochia ([10]; 62 g ai/ha): 85
- Plant response rating, Kochia ([10]; 125 g ai/ha): 90
- Plant response rating (scale 0 to 100), Oat, Wild [11]: 0
- Oat, Wild plant response rating [11, 22]: 0
- Oat, Wild plant response rating [11, 23]: 5
- Plant response rating, Oat, Wild [11, 24]: 5
- Sedge, Umbrella plant response rating [12]: 85
- Rice plant response rating [13]: 0
- Barnyardgrass plant response rating [14]: 20
- Ducksalad plant response rating [15]: 80
- Plant response rating, Galium [16, 25]: 100
- Plant response rating, Blackgrass [17, 25]: 100

Compound: Fc1ccc(Oc2ncc(Cl)cn2)c(-c2cc(C(F)(Cl)Cl)on2)c1 [Compound 221]
- Plant response rating, Pigweed [1, 27]: 100
- Plant response rating, Pigweed [1, 18]: 90
- Plant response rating, Pigweed [1, 28]: 90
- Pigweed plant response rating [1, 20]: 100
- Plant response rating, Ryegrass, Italian [2, 27]: 20
- Plant response rating, Ryegrass, Italian [2, 18]: 40
- Plant response rating, Ryegrass, Italian [2, 28]: 0
- Ryegrass, Italian plant response rating [2, 20]: 40
- Plant response rating, Kochia [3, 27]: 50
- Plant response rating, Kochia [3, 18]: 100
- Plant response rating, Kochia [3, 28]: 80
- Kochia plant response rating [3, 20]: 70
- Plant response rating, Wheat [4, 18]: 30
- Plant response rating, Wheat [4, 28]: 20
- Plant response rating, Foxtail, Giant [5, 27]: 50
- Plant response rating, Foxtail, Giant [5, 18]: 90
- Plant response rating, Foxtail, Giant [5, 28]: 10
- Foxtail, Giant plant response rating [5, 20]: 90
- Plant response rating, Ragweed [6, 27]: 0
- Plant response rating, Ragweed [6, 18]: 50
- Plant response rating, Ragweed [6, 28]: 10
- Ragweed plant response rating [6, 20]: 0
- Plant response rating, Barnyardgrass [7, 27]: 20
- Plant response rating, Barnyardgrass [7, 18]: 90
- Plant response rating, Barnyardgrass [7, 28]: 10
- Barnyardgrass plant response rating [7, 20]: 90
- Plant response rating, Corn [8, 18]: 50
- Plant response rating, Corn [8, 28]: 20
- Plant response rating (scale 0 to 100), Chickweed [9]: 75
- Chickweed plant response rating [9]: 85
- Plant response rating, Chickweed ([9]; 62 g ai/ha): 80
- Plant response rating, Chickweed ([9]; 125 g ai/ha): 100
- Plant response rating (scale 0 to 100), Kochia [10]: 98
- Kochia plant response rating [10]: 100
- Plant response rating, Kochia ([10]; 62 g ai/ha): 100
- Plant response rating, Kochia ([10]; 125 g ai/ha): 100
- Plant response rating (scale 0 to 100), Oat, Wild [11]: 5
- Oat, Wild plant response rating [11, 22]: 10
- Oat, Wild plant response rating [11, 23]: 10
- Plant response rating, Oat, Wild [11, 24]: 35
- Sedge, Umbrella plant response rating [12]: 95
- Rice plant response rating [13]: 0
- Barnyardgrass plant response rating [14]: 0
- Ducksalad plant response rating [15]: 100
- Plant response rating, Galium [16, 18]: 100
- Plant response rating, Galium [16, 28]: 90
- Plant response rating, Blackgrass [17, 18]: 60
- Plant response rating, Blackgrass [17, 28]: 30

— US10131652B2, “Pyrimidinyloxy benzene derivatives as herbicides” (E. I. DU PONT DE NEMOURS AND COMPANY, priority 2014, dated 2018)
